Experimental data from patent US8304422B2, “Compositions and methods for inhibition of the JAK pathway” (Rigel Pharmaceuticals, Inc., priority 2007, dated 2012).

Experiments:
[1] = tested on: Ramos B-Cell Line Stimulated with IL-4; assay: Assay for Ramos B-Cell Line Stimulated with IL-4 (CD23 upregulation, FACS; Example 2); type: cell-based; details: human Ramos B cells, IL-4 50 units/mL for 20-24 hours, anti-CD23-PE
Outline: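 Human Ramos B cells (5×10^4 per point, RPMI with 5% serum) preincubated 1 hour at 37° C with compound or DMSO, then stimulated with IL-4 at 50 units/mL final for 20-24 hours. CD23 upregulation measured by anti-CD23-PE staining and flow cytometry.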

[2] = tested on: BaF3 V617F cells; UKE-1; assay: Proliferation Assay (Cell Titer-Glo; Example 7); type: cell-based; details: proliferation 72 hours, inhibit JAK2 activity, cell line (BaF3 V617F or UKE-1) not stated
Outline: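 BaF3 V617F cells (RPMI, 10% FBS) and UKE-1 cells (Iscove's DMEM, 10% FBS, 10% equine serum, 1 uM hydrocortisone) were exposed to 3-fold serially diluted compound in duplicate for 72 hours at 37 °C. Viable cell number quantified by Cell Titer-Glo luminescence; IC50 reported.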

| Compound | IC50 [1] | IC50 [2] |
| --- | --- | --- |
| Cc1cnc(Nc2cccc(C#N)c2)nc1Nc1ccc(CNS(=O)(=O)C2CC2)cc1 [II-34, N2-(3-cyano)phenyl-N4-(4-cyclopropylsulfonylaminomethyl)phenyl-5-methyl-2,4-pyrimidinediamine] | 45.5 nM | 460 nM |
| COc1ccc(Nc2ncc(Cl)c(Nc3ccc(CNS(=O)(=O)C4CC4)cc3)n2)cc1Cl [II-35, 5-chloro-N2-(3-chloro-4-methoxy)phenyl-N4-(4-cyclopropylsulfonylaminomethyl)phenyl-2,4-pyrimidinediamine] | 48.9 nM | 912 nM |
| Cc1cc(C)cc(Nc2ncc(Cl)c(Nc3ccc(CNS(=O)(=O)C4CC4)cc3)n2)c1 [II-36, 5-chloro-N4-(4-cyclopropylsulfonylaminomethyl)phenyl-N2-(3,5-dimethyl)phenyl-2,4-pyrimidinediamine] | 38.1 nM | 599 nM |
| NC(=O)c1ccc(Nc2ncc(Cl)c(Nc3ccc(CNS(=O)(=O)C4CC4)cc3)n2)cc1 [II-37, N2-(4-aminocarbonyl)phenyl-5-chloro-N4-(4-cyclopropylsulfonylaminomethyl)phenyl-2,4-pyrimidinediamine] | 18.3 nM | 875 nM |
| Cc1cc(C)cc(Nc2ncc(C)c(Nc3ccc(CNS(=O)(=O)C4CC4)c(Cl)c3)n2)c1 [II-38, N4-(3-chloro-4-cyclopropylsulfonylaminomethyl)phenyl-N2-(3,5-dimethyl)phenyl-5-methyl-2,4-pyrimidinediamine] | 331 nM | 1540 nM |
| Cc1cc(C)cc(Nc2ncc(C)c(Nc3ccc(CN(C)S(=O)(=O)C4CC4)cc3)n2)c1 [II-39, N4-[4-(N-cyclopropylsulfonyl-N-methyl)aminomethyl]phenyl-N2-(3,5-dimethyl)phenyl-5-methyl-2,4-pyrimidinediamine] | 327 nM | 2040 nM |
| Cc1cc(C)cc(Nc2ncc(C)c(Nc3cccc(CN(C)S(=O)(=O)C4CC4)c3)n2)c1 [II-40, N4-[3-(N-cyclopropylsulfonyl-N-methyl)aminomethyl]phenyl-N2-(3,5-dimethyl)phenyl-5-methyl-2,4-pyrimidinediamine] | 704 nM | 2200 nM |
| COc1c(C)cc(Nc2ncc(F)c(Nc3ccc(CNS(=O)(=O)C4CC4)cc3)n2)cc1C [II-41, N4-(4-cyclopropylsulfonylaminomethyl)phenyl-N2-(3,5-dimethyl-4-methoxy)phenyl-5-fluoro-2,4-pyrimidinediamine] | 37.8 nM | 123 nM |
| COc1c(C)cc(Nc2ncc(C)c(Nc3ccc(CNS(=O)(=O)C4CC4)cc3)n2)cc1C [II-42, N4-(4-cyclopropylsulfonylaminomethyl)phenyl-N2-(3,5-dimethyl-4-methoxy)phenyl-5-methyl-2,4-pyrimidinediamine] | 24.7 nM | 63.7 nM |
| COc1c(C)cc(Nc2ncc(Cl)c(Nc3ccc(CNS(=O)(=O)C4CC4)cc3)n2)cc1C [II-43, 5-chloro-N4-(4-cyclopropylsulfonylaminomethyl)phenyl-N2-(3,5-dimethyl-4-methoxy)phenyl-2,4-pyrimidinediamine] | 38.6 nM | 23.9 nM |
| COc1c(C)cc(Nc2ncc(C)c(Nc3cccc(CNS(=O)(=O)C4CC4)c3)n2)cc1C [II-44, N4-(3-cyclopropylsulfonylaminomethyl)phenyl-N2-(3,5-dimethyl-4-methoxy)phenyl-5-methyl-2,4-pyrimidinediamine] | 78.3 nM | 488 nM |
| O=S(=O)(NCc1ccc(Nc2nc(Nc3ccc4ccn(CCN5CCOCC5)c4c3)ncc2F)cc1)C1CC1 [III-1, N4-[4-(Cyclopropylsulfonylaminomethyl)phenyl]-5-fluoro-N2-[1-(2-(N-morpholino)ethyl)indol-6-yl]-2,4-pyrimidinediamine] | 290 nM | 2970 nM |
| O=C(NCCN1CCOCC1)n1ccc2ccc(Nc3ncc(F)c(Nc4ccc(CNS(=O)(=O)C5CC5)cc4)n3)cc21 [III-2, N4-[4-(Cyclopropylsulfonylaminomethyl)phenyl]-5-fluoro-N2-[1-(2-(N-morpholino)ethylaminocarbonyl)indol-6-yl]-2,4-pyrimidinediamine] | 911 nM | 6180 nM |
| Cc1nc2cc(Nc3ncc(C)c(Nc4ccc(CNS(=O)(=O)C5CC5)cc4)n3)ccc2[nH]1 [III-3, N4-(4-cyclopropylsulfonylaminomethyl)phenyl-5-methyl-N2-(2-methylbenzoimidazol-5-yl)-2,4-pyrimidinediamine] | 49.4 nM | 5800 nM |
| Cc1nc2cc(Nc3ncc(F)c(Nc4ccc(CNS(=O)(=O)C5CC5)cc4)n3)ccc2[nH]1 [III-5, N4-(4-cyclopropylsulfonylaminomethyl)phenyl-5-fluoro-N2-(2-methylbenzoimidazol-5-yl)-2,4-pyrimidinediamine] | 178 nM | 6310 nM |
| Cc1nc2cc(Nc3ncc(Cl)c(Nc4ccc(CNS(=O)(=O)C5CC5)cc4)n3)ccc2[nH]1 [III-6, 5-chloro-N4-(4-cyclopropylsulfonylaminomethyl)phenyl-N2-(2-methylbenzoimidazol-5-yl)-2,4-pyrimidinediamine] | 26.6 nM | 1450 nM |
| Cc1cnc(Nc2ccc3c(c2)nc(C)n3C)nc1Nc1ccc(CNS(=O)(=O)C2CC2)cc1 [IV-7, N4-(4-cyclopropylsulfonylaminomethyl)phenyl-N2-(1,2-dimethylbenzoimidazol-5-yl)-5-methyl-2,4-pyrimidinediamine] | 116 nM | 796 nM |
| O=S(=O)(NCc1ccc(Nc2nc(NC3CCCC3)ncc2F)cc1)C1CC1 [VIII-2, N2-cyclopentyl-N4-(4-cyclopropylsulfonylaminomethyl)phenyl-5-fluoro-2,4-pyrimidinediamine] | 1920 nM | 56100 nM |
| Cc1cc(C)cc(Nc2ncc(C)c(Nc3ccc4c(c3)CCN(S(=O)(=O)C3CC3)C4)n2)c1 [VIII-7, N4-[(N-cyclopropylsulfonyl)-1,2,3,4-tetrahydroisoquinolin-6-yl]-N2-(3,5-dimethyl)phenyl-5-methyl-2,4-pyrimidinediamine] | 110 nM | 478 nM |
